Test results reported in patent US20260272865A1, “HYDROXYPHENYL PROPANOATE COMPOUNDS FOR TUMOUR IMMUNOTHERAPY, COMPOSITIONS AND USES THEREOF” (UTI LIMITED PARTNERSHIP, priority 2023, published 2026).

Tests used:
IRF pathway = type: cell-based, human
[1] = system: GSDMD-mediated anti-tumour immunity; assay: Orthotopic M3-9-M^OVA RMS in WT vs GSDMD-KO mice; type: in vivo, mouse
Text: It was hypothesized that the HPP metabolite enhances cancer immunity by targeting a critical signalling protein involved in the NF-κB pathway. […] Through nonparametric analysis of the response curves (NPARC) (Mol. Cell. Proteomics 18, (2019)), 647 potential protein targets of 3,2-HPP metabolite were identified (FIG. 10b). To narrow down the investigation, GSDMD was focused on (FIG. 10c, d), which is a cell membrane pore-forming protein that plays a critical role in inflammasome pathway, IL-1β release and tumour immunity (Cell Rep. 34, (2021); Cell Res. 25, 1285-98 (2015); J. Immunother. Cancer 10, (2022); Cell Rep. 41, (2022); Int. Immunopharmacol. 74, (2019); J. Dig. Dis. 19, (2018); Int. J. Biol. Sci. 17, (2021); Nat. Commun. 13, 1-20 (2022); BMC Cancer 20, (2020); Oncogene 41, 5092-5106 (2022)). A correlation between the expression of inflammasome genes, GSDMD and NF-κB1 in tumour infiltrated immune cells was observed (FIG. 11). Whether 3,2-HPP targets GSDMD-mediated anti-tumour immunity was validated by orthotopically implanting M3-9-M^OVA RMS into the gastrocnemius muscle of male C57BL/6NJ (WT) and C57BL/6N-Gsdmdem4Fcw/J (KO) mice (FIG. 10e).

GSDMD = target: T1, GSDMD (Homo sapiens, UniProt P57764); assay: Thermal proteomic profiling (TPP) in intact THP1-Dual cells; type: binding
T1 construct: host or cells: THP1-Dual cells (human monocytic reporter line)
T1 sequence (P57764 1-484): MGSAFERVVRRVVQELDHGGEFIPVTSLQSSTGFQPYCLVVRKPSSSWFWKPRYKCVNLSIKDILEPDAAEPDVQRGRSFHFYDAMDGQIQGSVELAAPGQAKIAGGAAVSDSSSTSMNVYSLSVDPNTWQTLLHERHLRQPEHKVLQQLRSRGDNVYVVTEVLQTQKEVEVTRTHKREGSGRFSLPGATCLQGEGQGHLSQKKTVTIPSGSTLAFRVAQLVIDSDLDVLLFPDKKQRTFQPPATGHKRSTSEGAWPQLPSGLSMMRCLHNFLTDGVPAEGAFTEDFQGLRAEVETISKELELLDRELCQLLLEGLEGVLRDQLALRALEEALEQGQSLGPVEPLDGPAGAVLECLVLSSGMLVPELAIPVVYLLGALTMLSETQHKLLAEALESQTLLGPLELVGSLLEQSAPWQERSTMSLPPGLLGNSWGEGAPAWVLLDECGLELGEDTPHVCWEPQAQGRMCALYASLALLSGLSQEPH
Experimental: 24 mL of THP1-Dual™ cells (at a density of 1.5×10^6 cells/mL) were treated with 2 mM metabolite or vehicle control for 16 hours. The cells were then centrifuged at 340×g for 5 minutes at 4° C., resuspended in 20 mL of ice-cold PBS, and centrifuged again. The cells were resuspended in 1200 μL of PBS, divided into 10 aliquots of 100 μL in 0.2 mL PCR tubes and centrifuged at 325×g for 2 minutes at 4° C. 80 μL of the PBS supernatant was removed using a pipette and the tubes were gently tapped to resuspend the cells. Each of the metabolite and vehicle-treated cell tubes were then heated in parallel in a PCR machine for 3 minutes at temperatures ranging from 37° C. to 67° C. […] The entire content was centrifuged at 100,000×g for 20 minutes at 4° C., the supernatant was removed into a fresh tube, and the protein concentration of the 37° C. sample was measured. […] The volume of lysate that gave 200 μg of protein at the 37° C. temperature point was determined and removed into a fresh tube for all other temperature points.
The proteins were cleaned up and the peptides digested following previously described methods (Science 346, (2014); Nat. Protoc. 10, 1567-1593 (2015)). […] The next day, the digested peptides were transferred to a fresh Eppendorf™ tube and the concentration of peptides measured in the 37° C. temperature point. […]

[2] = Maximum tolerable dose and body weight of mice given metabolite intraperitoneally; type: in vivo; conditions: 83 mg/kg body weight, given every 48 hours, intraperitoneal

Compound: O=C(O)CCc1ccccc1O [Compound I-1, 3-(2-hydroxyphenyl)propanoic acid]
- IRF pathway activation combined with PRR agonists (IRF pathway): potentiate
- effect on tumours implanted in GSDMD-KO mice ([1]; male C57BL/6N-Gsdmdem4Fcw/J (KO) mice): had no effect
- overall survival ([1]; male C57BL/6NJ (WT) mice): increased overall survival
- tumour growth ([1]; male C57BL/6NJ (WT) mice): decreased tumour growth
- GSDMD protein denaturation curve (GSDMD; NPARC test): impacted
- number of potential protein targets identified (NPARC) (GSDMD; proteome-wide, 2 mM metabolite, 16 hours): 647
- toxicity or weight loss [2]: without toxicity or weight loss
